Drawing on patent US20150031668A1, “CHROMAN DERIVATIVES AS TRPM8 INHIBITORS” (AMGEN INC., priority 2013, published 2015), this text covers IC50 for 31 molecules.

Molecules are shown by their SMILES. Counter-ions that a name gives are not always drawn.

T1 sequence (Q7Z2W7 whole entry): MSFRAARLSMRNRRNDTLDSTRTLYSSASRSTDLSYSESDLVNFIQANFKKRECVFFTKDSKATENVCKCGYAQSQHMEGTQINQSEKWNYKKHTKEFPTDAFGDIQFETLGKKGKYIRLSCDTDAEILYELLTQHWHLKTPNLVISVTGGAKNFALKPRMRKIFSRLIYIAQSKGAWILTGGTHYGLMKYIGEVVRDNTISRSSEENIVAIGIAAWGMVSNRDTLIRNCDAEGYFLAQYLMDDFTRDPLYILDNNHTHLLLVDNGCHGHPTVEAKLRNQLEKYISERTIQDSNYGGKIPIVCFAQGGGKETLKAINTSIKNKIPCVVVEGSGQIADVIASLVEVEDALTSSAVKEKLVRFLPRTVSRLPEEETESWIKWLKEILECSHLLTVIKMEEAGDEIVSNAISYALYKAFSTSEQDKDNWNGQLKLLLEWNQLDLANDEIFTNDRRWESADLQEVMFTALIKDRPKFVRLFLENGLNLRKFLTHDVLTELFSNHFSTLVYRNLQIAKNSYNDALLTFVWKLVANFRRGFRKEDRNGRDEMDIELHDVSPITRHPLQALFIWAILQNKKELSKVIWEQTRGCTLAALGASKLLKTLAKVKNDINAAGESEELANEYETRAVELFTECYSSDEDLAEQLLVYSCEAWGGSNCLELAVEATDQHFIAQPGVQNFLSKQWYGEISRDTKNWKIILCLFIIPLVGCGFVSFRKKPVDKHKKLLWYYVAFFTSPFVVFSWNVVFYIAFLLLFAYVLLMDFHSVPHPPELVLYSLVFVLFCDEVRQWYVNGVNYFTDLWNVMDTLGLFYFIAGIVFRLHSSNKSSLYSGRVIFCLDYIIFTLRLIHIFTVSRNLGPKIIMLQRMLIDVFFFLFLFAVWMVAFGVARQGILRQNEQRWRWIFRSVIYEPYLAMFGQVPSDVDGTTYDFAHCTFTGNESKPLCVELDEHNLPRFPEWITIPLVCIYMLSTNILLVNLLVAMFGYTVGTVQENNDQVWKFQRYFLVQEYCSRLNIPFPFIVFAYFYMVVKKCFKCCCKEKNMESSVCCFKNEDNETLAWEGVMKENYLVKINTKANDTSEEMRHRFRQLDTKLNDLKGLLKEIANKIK

One experiment has as its target T1, human TRPM8 (Homo sapiens, UniProt Q7Z2W7).
T1 construct: expressed in transfected cells; host or cells: Chinese hamster ovary (CHO) cells, T-REx tetracycline-inducible expression system (Invitrogen); co-transfected with pcDNA3.1 aequorin
The experiment can be described thus: Luminescence readout assay for measuring intracellular calcium (aequorin, CHO cells expressing human TRPM8; icilin, L-menthol or cold activation). The experiment is classed as cell-based.
Conditions: not given
The gist of the method: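 Activation was by 1 μM icilin, 100 μM L-menthol (test compound 2.5 min ahead) or cold buffer below 10° C (compound 1 min ahead). Calcium rise measured as aequorin luminescence in CHO cells with tetracycline-inducible human TRPM8.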
With `O=C1CCN(C(=O)N[C@]2(c3ccc(OC(F)(F)F)c(F)c3)CCOc3cccnc32)CC1` [Example 103, (S)-N-(4-(3-fluoro-4-(trifluoromethoxy)phenyl)-3,4-dihydro-2H-pyrano[3,2-b]pyridin-4-yl)-4-oxopiperidine-1-carboxamide], the IC50 amounted to 0.278 µM.

The same experiment, now with this note: CHO cells expressing human TRPM8, icilin activation (1 μM), aequorin luminescence; read-out: hTRPM8 IC50.
Turning to `COC(=O)c1ccc(C(=O)N[C@]2(c3ccc(Cl)c(Cl)c3)CCOc3cccnc32)nc1` [Example 183, (S)-methyl 6-((4-(3,4-dichlorophenyl)-3,4-dihydro-2H-pyrano[3,2-b]pyridin-4-yl)carbamoyl) nicotinate], the IC50 turned out to be 0.021 µM.

Turning to `Cc1cc(C(=O)N[C@]2(c3ccc(OC(F)(F)F)c(F)c3)CCOc3cccnc32)ccc1C(=O)NC(C)(C)C` [Example 297, (S)—N1-(tert-butyl)-N4-(4-(3-fluoro-4-(trifluoromethoxy)phenyl)-3,4-dihydro-2H-pyrano[3,2-b]pyridin-4-yl)-2-methylterephthalamide], the 50% inhibitory concentration (IC50) is 0.026 µM.

Turning to `O=C(N[C@]1(c2ccc(OC(F)(F)F)cc2)CCOc2cccnc21)c1ccc2ccccc2n1` [Example 251, (S)-N-(4-(4-(trifluoromethoxy)phenyl)-3,4-dihydro-2H-pyrano[3,2-b]pyridin-4-yl)quinoline-2-carboxamide formate], the 50% inhibitory concentration (IC50) is 0.056 µM.

Regarding `O=C(N[C@]1(c2ccc(OC(F)(F)F)c(F)c2)CCOc2cccnc21)c1ccc(C(=O)O)nc1` [Example 328, (S)-5-((4-(3-fluoro-4-(trifluoro-methoxy)phenyl)-3,4-dihydro-2H-pyrano[3,2-b]pyridin-4-yl)carbamoyl) picolinic acid 2,2,2-trifluoroacetate], the IC50 was determined as 1.56 µM.

Take `Cc1ccc([C@@]2(NC(=O)c3ccccc3)CCOc3cccnc32)cc1` (single isomer, unassigned) [Example 18]: the half-inhibitory concentration (IC50) came to 0.162 µM.

`O=C(N[C@]1(c2ccc(C(F)(F)F)cc2)CCOc2cccnc21)c1ccncn1` [Example 35, (S)-N-(4-(4-(trifluoromethyl)phenyl)-3,4-dihydro-2H-pyrano[3,2-b]pyridin-4-yl)pyrimidine-4-carboxamide]: the half-inhibitory concentration (IC50) worked out at 0.2 µM.

As to `Cn1cc2cccc(C(=O)N[C@]3(c4ccc(OC(F)(F)F)cc4)CCOc4cccnc43)c2n1` [Example 266, (S)-2-methyl-N-(4-(4-(trifluoromethoxy)phenyl)-3,4-dihydro-2H-pyrano[3,2-b]pyridin-4-yl)-2H-indazole-7-carboxamide formate], the half-maximal inhibitory concentration (IC50) was 0.036 µM.

For `O=C(N[C@]1(c2ccc(OC(F)(F)F)cc2)CCOc2cccnc21)c1ccc2cc[nH]c(=O)c2c1` [Example 271, (S)-1-oxo-N-(4-(4-(trifluoromethoxy)phenyl)-3,4-dihydro-2H-pyrano[3,2-b]pyridin-4-yl)-1,2-dihydroisoquinoline-7-carboxamide formate], the concentration for half-maximal inhibition (IC50) came out at 0.016 µM.

With `NC(=O)c1cc(-c2ccc([C@@]3(NC(=O)c4ccc(F)cc4)CCOc4cccnc43)cc2)ccc1Cl` [Example 123, (S)-4-chloro-4′-(4-(4-fluorobenzamido)-3,4-dihydro-2H-pyrano[3,2-b]pyridin-4-yl)-[1,1′-biphenyl]-3-carboxamide], the IC50 was 3.56 µM.

Turning to `Cc1cc(C(=O)N[C@]2(c3ccc(OC(F)(F)F)c(F)c3)CCOc3cccnc32)ncc1Br` [Example 166, (S)-5-bromo-N-(4-(3-fluoro-4-(trifluoromethoxy)phenyl)-3,4-dihydro-2H-pyrano[3,2-b]pyridin-4-yl)-4-methylpicolin amide], the half-maximal inhibitory concentration (IC50) stood at 0.01 µM.

On to `Cc1nc(-c2ccc(C(=O)N[C@]3(c4ccc(OC(F)(F)F)cc4)CCOc4cccnc43)cc2)no1` [Example 276, (S)-4-(5-methyl-1,2,4-oxadiazol-3-yl)-N-(4-(4-(trifluoromethoxy)phenyl)-3,4-dihydro-2H-pyrano[3,2-b]pyridin-4-yl)benzamide formate], for which the concentration for half-maximal inhibition (IC50) came out at 0.016 µM.

Regarding `COC(=O)c1ccccc1NC(=O)N[C@]1(c2ccc(OC(F)(F)F)c(F)c2)CCOc2cccnc21` [Example 86, (S)-methyl 2-(3-(4-(3-fluoro-4-(trifluoromethoxy)phenyl)-3,4-dihydro-2H-pyrano[3,2-b]pyridin-4-yl)ureido)benzoate], the IC50 was determined as 0.019 µM.

Turning to `O=C(Nc1ccc(Br)nc1)N[C@]1(c2ccc(OC(F)(F)F)c(F)c2)CCOc2cccnc21` [Example 88, (S)-1-(6-bromopyridin-3-yl)-3-(4-(3-fluoro-4-(trifluoromethoxy)phenyl)-3,4-dihydro-2H-pyrano[3,2-b]pyridin-4-yl)urea], the half-inhibitory concentration (IC50) amounted to 0.115 µM.

In the case of `O=C(N[C@]1(c2ccc(-c3cccc(CO)c3)cc2)CCOc2cccnc21)c1ccc(F)cc1` [Example 118, (S)-4-fluoro-N-(4-(3′-(hydroxymethyl)-[1,1′-biphenyl]-4-yl)-3,4-dihydro-2H-pyrano[3,2-b]pyridin-4-yl)benzamide], the IC50 was 2.17 µM.

For `NS(=O)(=O)c1ccc(C(=O)N[C@]2(c3ccc(OC(F)(F)F)c(F)c3)CCOc3cccnc32)cc1` [Example 184, (S)-N-(4-(3-fluoro-4-(trifluoromethoxy)phenyl)-3,4-dihydro-2H-pyrano[3,2-b]pyridin-4-yl)-sulfamoylbenzamide], the IC50 worked out at 0.05 µM.

As to `O=C(N[C@]1(c2ccc(OC(F)(F)F)c(F)c2)CCOc2cccnc21)c1ccc(Br)s1` [Example 203, (S)-5-bromo-N-(4-(3-fluoro-4-(trifluoromethoxy)phenyl)-3,4-dihydro-2H-pyrano[3,2-b]pyridin-4-yl) thiophene-2-carboxamide], the IC50 is 0.074 µM.

Consider `O=C(N[C@]1(c2ccc(OC(F)(F)F)cc2)CCOc2cccnc21)c1ncc[nH]1` [Example 210, (S)-N-(4-(4-(trifluoromethoxy)phenyl)-3,4-dihydro-2H-pyrano[3,2-b]pyridin-4-yl)-1H-imidazole-2-carboxamide formate], for which the half-maximal inhibitory concentration (IC50) came to 2.31 µM.

Take `O=C(N[C@]1(c2ccc(Cl)c(Cl)c2)CCOc2cccnc21)c1ccc(=O)[nH]c1` [Example 194, (S)-N-(4-(3,4-dichlorophenyl)-3,4-dihydro-2H-pyrano[3,2-b]pyridin-4-yl)-6-oxo-1,6-dihydropyridine-3-carboxamide]: the half-maximal inhibitory concentration (IC50) turned out to be 0.044 µM.

`O=C(N[C@]1(c2ccc(OC(F)(F)F)cc2)CCOc2cccnc21)c1ccsc1` [Example 230, (S)-N-(4-(4-(trifluoromethoxy)phenyl)-3,4-dihydro-2H-pyrano[3,2-b]pyridin-4-yl)thiophene-3-carboxamide formate]: the IC50 came to 0.0201 µM.

As for `O=C(N[C@]1(c2ccc(OC(F)(F)F)cc2)CCOc2cccnc21)c1cnns1` [Example 214, (S)-N-(4-(4-(trifluoromethoxy)phenyl)-3,4-dihydro-2H-pyrano[3,2-b]pyridin-4-yl)-1,2,3-thiadiazole-5-carboxamide formate], the IC50 worked out at 0.19 µM.

As to `CN(C)C(=O)c1ccc(-c2ccc([C@@]3(NC(=O)c4ccc(F)cc4)CCOc4cccnc43)cc2)cc1` [Example 137, (S)-4′-(4-(4-fluorobcnzamido)-3,4-dihydro-2H-pyrano[3,2-b]pyridin-4-yl)-N,N-dimethyl-[1,1′-biphenyl]-4-carboxamide], the IC50 is 1.52 µM.

For `O=C(N[C@]1(c2ccc(OC(F)(F)F)c(F)c2)CCOc2cccnc21)N1CCOCC1` [Example 101, (S)-N-(4-(3-fluoro-4-(trifluoromethoxy)phenyl)-3,4-dihydro-2H-pyrano[3,2-b]pyridin-4-yl)morpholine-4-carboxamide], the concentration for half-maximal inhibition (IC50) was 0.76 µM.

Take `Cn1cc2ccc(C(=O)N[C@]3(c4ccc(OC(F)(F)F)cc4)CCOc4cccnc43)cc2n1` [Example 265, (S)-2-methyl-N-(4-(4-(trifluoromethoxy)phenyl)-3,4-dihydro-2H-pyrano[3,2-b]pyridin-4-yl)-2H-indazole-6-carboxamide formate]: the IC50 was found to be 0.014 µM.

For the molecule `O=C(Nc1cccnc1)N[C@]1(c2ccc(C(F)(F)F)cc2)CCOc2cccnc21` [Example 73, (S)-1-(pyridin-3-yl)-3-(4-(4-(trifluoromethyl)phenyl)-3,4-dihydro-2H-pyrano[3,2-b]pyridin-4-yl)urea], the half-maximal inhibitory concentration (IC50) was 0.019 µM.

In the case of `N#Cc1ccc(-c2ccc([C@@]3(NC(=O)c4ccccc4)CCOc4cccnc43)cc2)cc1` [Example 154, (S)—N-(4-(4′-cyano-[1,1′-biphenyl]-4-yl)-3,4-dihydro-2H-pyrano[3,2-b]pyridin-4-yl)benzamide], the IC50 worked out at 0.091 µM.

With `CC(=O)Nc1cc(C(=O)N[C@]2(c3ccc(OC(F)(F)F)c(F)c3)CCOc3cccnc32)ccc1C(=O)O` [Example 323, (S)-2-acetamido-4-((4-(3-fluoro-4-(trifluoro-methoxy)phenyl)-3,4-dihydro-2H-pyrano[3,2-b]pyridin-4-yl)carbamoyl) benzoic acid], the IC50 is 0.316 µM.

In the case of `C[C@H](NC(=O)N[C@]1(c2ccc(C(F)(F)F)cc2)CCOc2cccnc21)C(F)(F)F` [Example 67, 1-((S)-4-(4-(trifluoromethyl)phenyl)-3,4-dihydro-2H-pyrano[3,2-b]pyridin-4-yl)-3-((S)-1,1,1-trifluoropropan-2-yl)urea 2,2,2-trifluoroacetate], the 50% inhibitory concentration (IC50) is 0.293 µM.

For the molecule `O=C(N[C@]1(c2ccc(OC(F)(F)F)cc2)CCOc2cccnc21)c1cc2ccccn2n1` [Example 219, (S)-N-(4-(4-(trifluoromethoxy)phenyl)-3,4-dihydro-2H-pyrano[3,2-b]pyridin-4-yl) pyrazolo[1,5-a] pyridine-2-carboxainide formate], the IC50 worked out at 0.011 µM.

As to `O=C(N[C@]1(c2ccc(OC(F)(F)F)cc2)CCOc2cccnc21)c1cnc2ccccc2n1` [Example 255, (S)-N-(4-(4-(trifluoromethoxy)phenyl)-3,4-dihydro-2H-pyrano[3,2-b]pyridin-4-yl)quinoxaline-2-carboxamide formate], the 50% inhibitory concentration (IC50) was 0.009 µM.

With `Cc1cc(C(=O)N[C@]2(c3ccc(OC(F)(F)F)c(F)c3)CCOc3cccnc32)ccc1Br` [Example 167, (S)-4-bromo-N-(4-(3-fluoro-4-(trifluoromethoxy)phenyl)-3,4-dihydro-2H-pyrano [3,2-b]pyridin-4-yl)-3-methylbenzamide], the IC50 is 0.019 µM.
